A short description of data set [1]: Dissolution time in 900 ml water (20° C.), 1-L elution tester, Japanese Pharmacopoeia Paddle method, 100 rpm. It counts as physicochemical. The method, then: A predetermined amount of the sample was introduced into 900 ml water (20° C.) in a 1-L elution tester (the Japanese Pharmacopoeia, Paddle method, 100 rpm) and its dissolution time was measured (end point was visually confirmed).
Specifically, 1 g of the sample taken from each mixture consisting of NM C-type crystals (average particle size (diameter) of about 100 μm) and ACE-K raw powder (average particle size of about 20 μm) at a predetermined ratio (ACE-K content (% by weight)) shown in Table 1 below, was weighed and measured for its dissolution time. For comparison, 1.00 g, 0.90 g, 0.80 g, 0.50 g, 0.10 g, and 0.03 g samples were taken from said NM crystals and their dissolution times were determined in the same manner.
The dissolution times of mixtures of NM and ACE-K were measured in the same manner as in Experimental Example 1 except that NM A-type crystals were used in place of NM C-type crystals.
The sample amount for each mixture and the amount of NM alone (NM A-type crystals) were the same as that in Example 1.
The same NM crystals as those in Experimental Example 1 were used as NM, and the same ACE-K powder (average particle size (diameter) of about 20 μm) as that in Experimental Example 1 was used as ACE-K, and the dissolution times thereof were determined in the same manner as in Experimental Example 1.
That is, 0.5 g each of both of them was weighed (1.0 g in total) and introduced simultaneously without being previously mixed, into the elution tester (separate addition). For reference, the dissolution time of 0.5 g NM C-type crystals alone (Experimental Example 1) is also shown together in the table.

Data set [2] can be described thus: Quality of sweetness compared to sucrose (early taste, later taste, astringent taste). The settings on record: found by the present inventors. From the text:
It is reported that the sweetness strength or sweetening potency of the synthetic high-potency sweetener, NM, is about 10,000 times that of sucrose in terms of weight ratio (Japanese Patent Kohyou Publication JP-A-8-503206). […] Further, NM has a strong astringent taste. Accordingly, the balance of the quality of sweetness properties for NM is poor when compared to sucrose. Sucrose is generally regarded as the standard for evaluating the properties or characteristics of the quality of sweetness.

For data set [3] the following is noted: in terms of weight ratio; cited from earlier work.

Here are results for four molecules from patent US6372279B1, “Sweetener composition” (Ajinomoto Co., Inc., priority 1998, dated 2002).

`COC(=O)[C@H](Cc1ccccc1)NC(=O)[C@H](CC(=O)O)NCCC(C)(C)C` [NM A-type crystals, N-{N-(3,3-dimethylbutyl)-L-α-aspartyl}-L-phenylalanine 1-methyl ester, reference compound] came in with a Dissolution time in data set [1] (NM A-type crystals alone, 0.80 g in 900 ml water, 20° C.) of 38 min.
Take `COC(=O)[C@H](Cc1ccccc1)NC(=O)[C@H](CC(=O)O)NCCC(C)(C)C` [NM, N-{N-(3,3-dimethylbutyl)-L-α-aspartyl}-L-phenylalanine 1-methyl ester]: in data set [1] (0.51 g of NM alone (amount of equal sweetness to 1 g mixture containing 50% ACE-K)), the Dissolution time entry is given as “about 60 minutes”. For the same molecule, in data set [2] (compared to sucrose), the Early taste result is given as “extremely weak” and the Later taste result is reported as “extremely strong”. In addition, in data set [2], the Astringent taste result is listed as “strong”. The “Sweetness strength or sweetening potency” value in data set [3] is on record as “about 10,000 times that of sucrose”.
`COC(=O)[C@H](Cc1ccccc1)NC(=O)[C@H](CC(=O)O)NCCC(C)(C)C` [NM C-type crystals, N-{N-(3,3-dimethylbutyl)-L-α-aspartyl}-L-phenylalanine 1-methyl ester] showed a Dissolution time in data set [1] (NM C-type crystals alone, 0.80 g in 900 ml water, 20° C.) of 58 min.
Consider `CC1=CC(=O)[N-]S(=O)(=O)O1.[K+]` [ACE-K, Acesulfame K], for which the “Sweetness strength or sweetening potency” value in data set [3] is recorded as “about 200 times that of sucrose”.
